# Measurements: patent US11237156B2, “Method and composition for detection of peptide cyclization using protein tags” (Roche Sequencing Solutions, Inc., priority 2016, dated 2022)
# No end group written: not given here.
# What was measured:
# Cy3 anti-FLAG mouse mAB = test: Cyclization tag assay, anti-FLAG binding to peptide microarray; details: cyclization tag compared with fragmented control
# Description: (§1) With the matured linear protein tags at hand, the linear peptides were formed on a microarray where the tags were fragmented across the N- and C-terminus of the peptide such that upon cyclization, the complete protein tag is formed. The peptides were split around the low specificity position identified according to Examples 2 and 4 (position 6, for both tags), and that position was substituted with allyl-E (see FIG. 1). A flexible linker (Z) was inserted between the two peptide tag fragments to increase flexibility. Z was a 3:1 mixture of Gly:Ser. The linear peptide sequences are shown in Table 1 for the FLAG- and Myc-based sequenced in the row titled “Cyclization tag.” In addition to the cyclization tags, two controls were compared to each tag. The matured linear sequences identified according to Examples 2 and 4 (shown in Table 1 in the row titled “Linear control”) were formed on the microarray and tested as positive controls. […]
# (§2) Cy3 and Cy5 fluorescence intensity of the arrays was measured with MS200 scanner (Roche NimbleGen) at resolution 2 um, wavelength 532 nm or 635 nm, gain 25% and laser intensity 100%. […]
# Cy5 anti-Myc mouse mAB = test: Cyclization tag assay, anti-Myc binding to peptide microarray; details: cyclization tag compared with fragmented control
# Description: as §1, §2
# anti-Myc antibody = test: Myc sequence maturation binding assay (single substitutions, signal intensity)
# Description: A fragmented protein tag was designed to be specific for the anti-Myc antibody near the N-terminus and C-terminus of the peptide tag, while having low specificity in the middle of the sequence to assist with attachment to a microarray surface through an amino acid side chain. It is to be understood that in some embodiments the amino acid attached to the microarray surface can be near either end of the peptide tag and not necessary closer to the middle of the peptide tag. […] A maturation of the Myc (EQKLISEEDLG (SEQ ID NO: 233)) tag was performed with the tag in the linear form. Each amino acid in the 11 mer peptide was substituted with each of the remaining 19 amino acids. As further described below, the process was repeated until the desired specificity at each position was achieved.
# Referring to FIG. 29, the initial Myc sequence (EQKLISEEDLG (SEQ ID NO: 233)) was modified at positions 1-11 and signal intensity (y-axis) was measured.
# streptavidin-Cy5 = streptavidin-Cy5 (Streptomyces avidinii, UniProt P22629); test: Streptavidin-Cy5 binding to cyclic/linear peptide microarray (fluorescence); details: for cyclic fluorescent intensity: cyclic subarray
# Procedure: Slides were bound with […] streptavidin-Cy5 in 30 mL binding buffer for 30 minutes at room temperature. Binding buffer contained 1% alkali soluble casein and 0.05% tween-20 in 1×TBS, pH 7.4. After 30 minutes, slides were washed twice in 1×TBS buffer for 1 minute, water for 30 seconds, and spun to dryness.
# Cy5 fluorescence intensity of the arrays was measured with MS200 scanner (Roche NimbleGen) at resolution 2 um, wavelength 635 nm, gain 25% and laser intensity 100%. Cy5 signal intensities were extracted using Image Extraction Software (Roche NimbleGen). Data pre-processing, normalization and statistical tests were done in R. Data visualization and analysis were performed with Spotfire 6.5.0 (Tibco, Boston, Mass.) software platform.
# anti-FLAG antibody = test: FLAG-based sequence maturation binding assay (single substitutions, signal intensity); details: for signal intensity after single mutation of the precursor sequence: linear tag on microarray, each position substituted with remaining 19 natural amino acids
# Procedure: A fragmented peptide tag was designed to be specific for the anti-FLAG antibody near the N-terminus and C-terminus of the peptide tag, while having low specificity in the middle of the sequence to assist with attachment to a microarray surface through an amino acid side chain. […] A maturation of the FLAG (GDYKDDDDKGG (SEQ ID NO: 232)) tag was performed with the tag in linear form. Each amino acid in the 11 mer peptide was individually substituted with each of the remaining 19 amino acids. As further described below, the process was repeated with modified sequences until the desired specificity at each position was achieved.
# Referring to FIG. 25, the initial FLAG sequence (GDYKDDDDKGG (SEQ ID NO: 232)) was modified at each of positions 1-11 individually with each of the remaining 19 natural amino acids, and signal intensity (y-axis) was measured.
# [1] = single substitution scan of the matured tag
# [2] = extension of HPQ-specific design, all J combinations of JXXHPQXXJU
# Sequence of streptavidin-Cy5 (P22629 25-183): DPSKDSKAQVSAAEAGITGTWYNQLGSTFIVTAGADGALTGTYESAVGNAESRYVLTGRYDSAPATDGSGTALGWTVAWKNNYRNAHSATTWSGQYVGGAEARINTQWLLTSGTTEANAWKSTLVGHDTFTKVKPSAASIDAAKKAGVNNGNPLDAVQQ
substance,measurement,setting,value
"DQKGGZZZZWDYKD{allyl-E} (DQKGGXXXXWDYKDE; not fully specified (residue 15); printed as DQKGGZZZZWDYKD{allyl-E}; also: X6-X9: Gly or Ser mixture) [FLAG cyclization tag, fragmented FLAG-based tag on microarray, Z = 3:1 mixture of Gly:Ser, cyclized via allyl-E]",median fluorescence,Cy3 anti-FLAG mouse mAB,higher than that of the fragmented control peptides
"EEDWGZZZZEQKLI{allyl-E} (EEDWGXXXXEQKLIE; not fully specified (residue 15); printed as EEDWGZZZZEQKLI{allyl-E}; also: X6-X9: Gly or Ser mixture) [Myc cyclization tag, fragmented Myc-based tag on microarray, Z = 3:1 mixture of Gly:Ser, cyclized via allyl-E]",median fluorescence,Cy5 anti-Myc mouse mAB,higher than that of the fragmented control peptides
EQKLISEEDWG [L10W-Myc tag],signal intensity after single mutation of the precursor sequence,"anti-Myc antibody; linear tag on microarray, positions 1-11 modified",strongest increase in signal intensity
same,specificity by sequence position for the anti-Myc antibody,anti-Myc antibody; [1],strong specificity on the N-terminus (position 1-5) and moderate specificity on the C-terminus
LYDHPQNGGU (cyclo(LYDHPQNGGE); also: Glu10 surface-linked) [cylic LYDHPQNGGU],cyclic fluorescent intensity,streptavidin-Cy5; [2],highest cyclic intensity
NQpWU [cylic NQpWU],cyclic fluorescent intensity,streptavidin-Cy5; peptide library of format XXXXU,highest cyclic fluorescent intensity
QNDHPQNGGU (cyclo(QNDHPQNGGE); also: Glu10 surface-linked) [cyclic QNDHPQNGGU],log fold change (log FC) between cyclic and linear fluorescent intensity,"streptavidin-Cy5; extension of HPQ-specific design, JXXHPQXXJU",high log FC
same,cyclic fluorescent intensity,streptavidin-Cy5; [2],high cyclic intensity
WDYKDDDDKGG [G1W-FLAG tag],signal intensity after single mutation of the precursor sequence,anti-FLAG antibody,strongest increase in signal intensity
"WDYKDFDDKGG [G1W, D6F-FLAG tag, G1W-FLAG tag with position 6 mutated to phenylalanine]",signal intensity after single mutation of the precursor sequence,anti-FLAG antibody,strongest increase in signal intensity
"WDYKDFDQKGG [G1W, D6F, D8Q-FLAG tag, matured FLAG tag, position 8 mutated to glutamine]",specificity by sequence position for the anti-FLAG antibody,anti-FLAG antibody; [1],specificity for the anti-FLAG antibody on the N-terminus (position 1-4) and the C-terminus (position 7-8)
